In PubChem BioAssay (NCI) one finds GI50 and TGI data, which are given here for three molecules.

Among the test systems are A549 NSCLC; NCI-H23 lung; NCI-H522 lung; A498 renal; OVCAR-8 ovarian; UACC-62 melanoma; U251 CNS; OVCAR-4 ovarian; NCI-H226 lung; HCC-2998 colon.
What all share (test): growth of human tumour cells (NCI), 48 h

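Following 48 hours of exposure in 96-well plates, responses at five concentrations were used to interpolate endpoints linearly. Here, GI50 denotes the concentration required for 50% inhibition of growth. TGI denotes the concentration required for complete inhibition of growth.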

As to `Cc1cc(C)c(S(=O)(=O)Oc2ccccc2[N+](=O)[O-])c(C)c1`, the GI50 in the experiment on A549 NSCLC was 4.19 µM; with NCI-H23 lung, 4.69 µM; in the experiment with NCI-H522 lung it was 1.26 µM; in the experiment on A498 renal, 1.21 µM; in the experiment on OVCAR-8 ovarian, 4.28 µM; in the experiment with UACC-62 melanoma, 2.46 µM. Further, the GI50 in the experiment on U251 CNS is 2.36 µM; in the experiment on OVCAR-4 ovarian, more than 25.1 µM; in the experiment with NCI-H226 lung it was 10.6 µM; with HCC-2998 colon, 2.95 µM. Besides, the TGI in the experiment with A549 NSCLC was more than 100 µM; in the experiment with NCI-H23 lung it was more than 100 µM; in the experiment with NCI-H522 lung, 6.56 µM; with A498 renal it was 12.5 µM; in the experiment with OVCAR-8 ovarian, more than 100 µM; in the experiment on UACC-62 melanoma, more than 100 µM. The TGI in the experiment with U251 CNS, in the experiment with OVCAR-4 ovarian, in the experiment with NCI-H226 lung and in the experiment with HCC-2998 colon was more than 100 µM in each case.
With `COc1ccc2c(CCNS(=O)(=O)c3ccccc3)c(C(C)=O)[nH]c2c1[N+](=O)[O-]`, the TGI in the experiment on A549 NSCLC, in the experiment on NCI-H23 lung, in the experiment with NCI-H522 lung, in the experiment with A498 renal, in the experiment on OVCAR-8 ovarian and with UACC-62 melanoma was more than 100 µM throughout. Moreover, the TGI in the experiment with U251 CNS, with OVCAR-4 ovarian, with NCI-H226 lung and with HCC-2998 colon was more than 100 µM in each case.
With `Nc1nc(N)c2ncn(Cc3c(Cl)cccc3Cl)c2n1`, the TGI in the experiment on A549 NSCLC, in the experiment on NCI-H23 lung, in the experiment on NCI-H522 lung, with A498 renal, in the experiment on OVCAR-8 ovarian and in the experiment on UACC-62 melanoma was more than 100 µM each time. The TGI with U251 CNS, in the experiment on OVCAR-4 ovarian, in the experiment on NCI-H226 lung and in the experiment with HCC-2998 colon was more than 100 µM throughout.
